For `Cc1cc(SC(C)c2ccc3nn(-c4ccc(C(F)(F)F)cc4)cc3c2)ccc1OC(C)(C)C(=O)O` (racemic) [Example 69, (+/−)-2-Methyl-2-(2-methyl-4-{1-[2-(4-trifluoromethylphenyl)-2H-indazol-5-yl]ethylsulfanyl}phenoxy)propionic Acid], the melting point was 70 to 72 °C. Compound `Cc1cc(OCc2cccc3cnn(-c4ccc(C(F)(F)F)cc4)c23)ccc1OC(C)(C)C(=O)O` [Example 96, 2-Methyl-2-{2-methyl-4-[1-(4-trifluoromethylphenyl)-1H-indazol-7-ylmethoxy]phenoxy}propionic Acid] has a melting point of 124 to 126 °C. In the case of `Cc1cc(SCc2cccc3cn(-c4ccc(C(F)(F)F)cc4)nc23)ccc1CCC(=O)O` [Example 2, 3-{2-Methyl-4-[2-(4-trifluoromethylphenyl)-2H-indazol-7-ylmethylsulfanyl]phenyl}propionic Acid], the melting point is reported as 88 to 90 °C. `Cc1cc(SCc2cccc3c2cnn3-c2ccc(C(F)(F)F)cc2)ccc1OCC(=O)O` [Example 30, 2-Methyl-4-[1-(4-trifluoromethylphenyl)-1H-indazol-4-ylmethylsulfanyl]phenoxyacetic Acid] gave a melting point of 132 to 134 °C. `CC(C)(Oc1ccc(OCc2ccc3nn(-c4ccc(C(F)(F)F)cc4)cc3c2)cc1)C(=O)O` [Example 65, 2-Methyl-2-{4-[2-(4-trifluoromethylphenyl)-2H-indazol-5-ylmethoxy]phenoxy}propionic Acid] gave a melting point of 203 to 205 °C. In the case of `CC(C)(Oc1ccc(COCc2ccc3cn(-c4ccc(C(F)(F)F)cc4)nc3c2)cc1)C(=O)O` [Example 56, 2-Methyl-2-{4-[2-(4-trifluoromethylphenyl)-2H-indazol-6-ylmethoxymethyl]phenoxy}propionic Acid], the melting point is reported as 129 to 131 °C. For `CCc1cc(SCc2ccc3cn(-c4ccc(C(F)(F)F)cc4)nc3c2)ccc1OCC(=O)O` [Example 21, 2-Ethyl-4-[2-(4-trifluoromethylphenyl)-2H-indazol-6-ylmethylsulfanyl]phenoxyacetic Acid], the melting point was 119 to 121 °C. `CC(Sc1ccc(OC(C)(C)C(=O)O)cc1)c1cccc2c1cnn2-c1ccc(C(F)(F)F)cc1` (racemic) [Example 86, (+/−)-2-Methyl-2-(4-{1-[1-(4-trifluoromethylphenyl)-1H-indazol-4-yl]ethylsulfanyl}phenoxy)propionic Acid] gave a melting point of 85 to 90 °C. `Cc1cc(OCc2ccc3nn(-c4ccc(C(F)(F)F)cc4)cc3c2)ccc1OC(C)(C)C(=O)O` [Example 61, 2-Methyl-2-{2-methyl-4-[2-(4-trifluoromethylphenyl)-2H-indazol-5-ylmethoxy]phenoxy}propionic Acid] gave a melting point of 164 to 166 °C. With `Cc1cc(SCCc2cccc3cn(-c4ccc(C(F)(F)F)cc4)nc23)ccc1OCC(=O)O` [Example 46, (2-Methyl-4-{2-[2-(4-trifluoromethylphenyl)-2H-indazol-7-yl]ethylsulfanyl}phenoxy)acetic Acid] the melting point was 137 to 139 °C. For `Cc1cc(SCc2cccc3nn(-c4ccc(C(F)(F)F)cc4)cc23)ccc1OCC(=O)O` [Example 26, 2-Methyl-4-[2-(4-trifluoromethylphenyl)-2H-indazol-4-ylmethylsulfanyl]phenoxyacetic Acid], the melting point was 105 to 108 °C. `Cc1cc(SC(C)(C)c2cccc3cn(-c4ccc(C(F)(F)F)cc4)nc23)ccc1CCC(=O)O` [Example 15, 3-(2-Methyl-4-{1-methyl-1-[2-(4-trifluoromethylphenyl)-2H-indazol-7-yl]ethylsulfanyl}phenyl)propionic Acid] gave a melting point of 68 to 70 °C. For `CC(C)(Sc1ccc(OCc2cccc3c2cnn3-c2ccc(C(F)(F)F)cc2)cc1)C(=O)O` [Example 80, 2-Methyl-2-{4-[1-(4-trifluoromethylphenyl)-1H-indazol-4-ylmethoxy]phenylsulfanyl}propionic Acid], the melting point was 168 to 170 °C. In the case of `CC(Oc1ccc(SC(C)(C)C(=O)O)cc1)c1ccc2nn(-c3ccc(C(F)(F)F)cc3)cc2c1` (racemic) [Example 67, (+/−)-2-Methyl-2-(4-{1-[2-(4-trifluoromethylphenyl)-2H-indazol-5-yl]ethoxy}phenylsulfanyl)propionic Acid], the melting point is reported as 153 to 155 °C. Work on `CCc1cc(OCc2ccc3cn(-c4ccc(C(F)(F)F)cc4)nc3c2)ccc1CCC(=O)O` [Example 22, 3-{2-Ethyl-4-[2-(4-trifluoromethylphenyl)-2H-indazol-6-ylmethoxy]phenyl}propionic Acid] yielded a melting point of 190 to 192 °C. With `CC(C)(Oc1ccc(OCc2cccc3c2cnn3-c2ccc(C(F)(F)F)cc2)cc1)C(=O)O` [Example 81, 2-Methyl-2-{4-[1-(4-trifluoromethylphenyl)-1H-indazol-4-ylmethoxy]phenoxy}propionic Acid] the melting point was 128 to 130 °C. With `CC(C)(Sc1ccc(OCc2ccc3cn(-c4ccc(C(F)(F)F)cc4)nc3c2)cc1)C(=O)O` [Example 55, 2-Methyl-2-{4-[2-(4-trifluoromethylphenyl)-2H-indazol-6-ylmethoxy]phenylsulfanyl}propionic Acid] the melting point was 133 to 135 °C. Work on `Cc1cc(SC(CCC(F)(F)F)c2cccc3c2cnn3-c2ccc(C(F)(F)F)cc2)ccc1OC(C)(C)C(=O)O` (racemic) [Example 88, (+/−)-2-Methyl-2-(2-methyl-4-{4,4,4-trifluoro-1-[1-(4-trifluoromethylphenyl)-1H-indazol-4-yl]butylsulfanyl}phenoxy)propionic Acid] yielded a melting point of 205 to 210 °C. `Cc1cc(SCc2cccc3cnn(-c4ccc(C(F)(F)F)cc4)c23)ccc1CCC(=O)O` [Example 33, 3-{2-Methyl-4-[1-(4-trifluoromethylphenyl)-1H-indazol-7-ylmethylsulfanyl]phenyl}propionic Acid] showed a melting point of 120 to 123 °C. `Cc1cc(SCc2cccc3c2cnn3-c2ccc(C(F)(F)F)cc2)ccc1OC(C)(C)C(=O)O` [Example 78, 2-Methyl-2-{2-methyl-4-[1-(4-trifluoromethylphenyl)-1H-indazol-4-ylmethylsufanyl]phenoxy}propionic Acid] showed a melting point of 62 to 66 °C. With `Cc1cc(SCc2cccc3nn(-c4ccc(C(F)(F)F)cc4)cc23)ccc1CCC(=O)O` [Example 28, 3-{2-Methyl-4-[2-(4-trifluoromethylphenyl)-2H-indazol-4-ylmethylsulfanyl]phenyl}propionic Acid] the melting point was 55 to 59 °C. Work on `Cc1cc(SCc2cccc3cnn(-c4ccc(C(F)(F)F)cc4)c23)ccc1OCC(=O)O` [Example 34, 2-Methyl-4-[1-(4-trifluoromethylphenyl)-1H-indazol-7-ylmethylsulfanyl]phenoxyacetic Acid] yielded a melting point of 118 to 121 °C. Work on `CC(C)(Oc1ccc(SCc2cccc3cn(-c4ccc(C(F)(F)F)cc4)nc23)cc1)C(=O)O` [Example 36, 2-Methyl-2-{4-[2-(4-trifluoromethylphenyl)-2H-indazol-7-ylmethylsulfanyl]phenoxy}propionic Acid] yielded a melting point of 140 to 142 °C. For `CC(Oc1ccc(SC(C)(C)C(=O)O)cc1)c1cccc2nn(-c3ccc(C(F)(F)F)cc3)cc12` (racemic) [Example 76, (+/−)-2-Methyl-2-(4-{1-[2-(4-trifluoromethyl-phenyl)-2H-indazol-4-yl]ethoxy}phenylsulfanyl)propionic Acid], the melting point was 138 to 140 °C.
